Biological target: T1, hGPR120 (Homo sapiens, UniProt Q5NUL3)
T1 construct: expressed in transfected cells; host or cells: CHO-K1
T1 sequence (Q5NUL3 1-361): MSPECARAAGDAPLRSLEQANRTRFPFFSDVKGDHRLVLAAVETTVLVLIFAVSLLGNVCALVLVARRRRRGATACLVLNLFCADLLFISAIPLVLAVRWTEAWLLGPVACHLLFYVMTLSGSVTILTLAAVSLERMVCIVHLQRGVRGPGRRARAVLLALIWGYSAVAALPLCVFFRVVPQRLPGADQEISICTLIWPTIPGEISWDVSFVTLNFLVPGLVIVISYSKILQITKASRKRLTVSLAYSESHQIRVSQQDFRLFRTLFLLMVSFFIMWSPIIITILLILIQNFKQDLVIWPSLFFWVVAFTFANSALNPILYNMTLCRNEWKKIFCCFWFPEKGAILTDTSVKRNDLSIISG
Test: Measurement of Activity of GPR120 Agonist (Cell-Based Assay), Calcium 5 dye fluorescence
Conditions: CHO-K1 cells expressing Ga16 and hGPR120
How it was run: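 Gα16/hGPR120 CHO-K1; 18 h plating, 37 °C, 5% CO2; Calcium 5 dye load 1 h; agonist serial dilution, 0.5% DMSO final; fluor Ex485/Em525; response as % of 1% DMSO vehicle.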

Row | SMILES | EC50 [µM]
1 | CC(C)CNc1cncc(-c2cc(F)c(N3CCC(CC(=O)O)CC3)c(F)c2)n1 [Example 356, 2-[1-[2,6-difluoro-4-[6-(isobutylamino)pyrazin-2-yl]phenyl]-4-piperidyl]acetic acid] | 0.2 to 2
2 | CC(C)CNc1ccnc(-c2cc(F)c(N3CCC(CC(=O)O)CC3)c(F)c2)n1 [Example 360, 2-[1-[2,6-difluoro-4-[4-(isobutylamino)pyrimidin-2-yl]phenyl]-4-piperidyl]acetic acid] | 0.2 to 2
3 | Cc1cc(OC(C)C)nc(-c2cc(F)c(N3CCC(CC(=O)O)CC3)c(F)c2)n1 [Example 350, 2-[1-[2,6-difluoro-4-(4-isopropoxy-6-methyl-pyrimidin-2-yl)phenyl]-4-piperidyl]acetic acid] | 0.2 to 2
4 | O=C(O)CCC1CC1c1c(F)cc(-c2cccnc2SC2CCC2)cc1F (stereo not shown) [Example 176, 3-{2-[4-(2-cyclobutylsulfanyl-pyridin-3-yl)-2,6-difluoro-phenyl]-cyclopropyl}-propanoic acid] | < 0.2
5 | O=C(O)CCCCc1ccc(-c2cccnc2OCC2CCC2)cc1F [Example 246, 5-[4-(2-cyclobutylmethoxy-pyridin-3-yl)-2-fluoro-phenyl]-pentanoic acid] | < 0.2
6 | CN(CCCC(=O)O)c1c(F)cc(-c2cncc(OCC3CC3)n2)cc1F [Example 491, 4-[4-[6-(cyclopropylmethoxy)pyrazin-2-yl]-2,6-difluoro-N-methyl-anilino]butanoic acid] | < 0.2
7 | O=C(O)CCCOc1c(F)cc(-c2csc(OCC3CC3)n2)cc1F [Example 397, 4-[4-[2-(cyclopropylmethoxy)thiazol-4-yl]-2,6-difluoro-phenoxy]butanoic acid] | < 0.2
8 | CC(C)Oc1ncccc1-c1cc(F)c(C(C)CCCC(=O)O)c(F)c1 (stereo not shown) [Example 46, 5-[2,6-difluoro-4-(2-isopropoxy-3-pyridyl)phenyl]hexanoic acid] | < 0.2
9 | CN(CCCC(=O)O)c1c(F)cc(-c2cccc(OCC3CCC3)c2)cc1F [Example 520, 4-[(3′-cyclobutylmethoxy-3,5-difluoro-biphenyl-4-yl)-methyl-amino]-butyric acid] | 0.2 to 2
10 | O=C(O)CC1CN(c2c(F)cc(-c3cccc(OC4CCCC4)n3)cc2F)C1 [Example 116, 2-[1-[4-[6-(cyclopentoxy)-2-pyridyl]-2,6-difluoro-phenyl]azetidin-3-yl]acetic acid] | < 0.2
11 | O=C(O)CC1CCN(c2c(F)cc(-n3ncc4ccc(OC5CCC5)cc43)cc2F)C1 (stereo not shown) [Example 494, 2-[1-[4-[6-(cyclobutoxy)indazol-1-yl]-2,6-difluoro-phenyl]pyrrolidin-3-yl]acetic acid] | 0.2 to 2
12 | CC(C)OCc1cccc(-c2cc(F)c(N3CCC(CC(=O)O)CC3)c(F)c2)c1 [Example 302, 2-[1-[2,6-difluoro-4-[3-(isopropoxymethyl)phenyl]phenyl]-4-piperidyl]acetic acid] | 0.2 to 2
13 | CC(C)Sc1cccc(-c2cc(F)c(OCc3cc(O)no3)c(F)c2)n1 [Example 70, 5-[[2,6-difluoro-4-(6-isopropylsulfanyl-2-pyridyl)phenoxy]methyl]isoxazol-3-ol] | < 0.2
14 | CC(C)COc1cncc(-c2cc(F)c(N3CCC(CC(=O)O)C3)c(F)c2)n1 (stereo not shown) [Example 496, 2-{1-[2,6-difluoro-4-(6-isobutoxy-pyrazin-2-yl)phenyl]pyrrolidin-3-yl}acetic acid] | 0.2 to 2
15 | CCOc1cccc(-c2cc(F)c(N3CCC(CC(=O)O)CC3)c(F)c2)n1 [Example 314, 2-[1-[4-(6-ethoxy-2-pyridyl)-2,6-difluoro-phenyl]-4-piperidyl]acetic acid] | 0.2 to 2
16 | C[C@H](C/C=C/C(=O)O)c1c(F)cc(-c2cccnc2SC2CCC2)cc1F [Example 228, (E)-(R)-5-[4-(2-cyclobutylsulfanyl-pyridin-3-yl)-2,6-difluoro-phenyl]-hex-2-enoic acid] | < 0.2

Row | SMILES | EC50 [µM]
17 | Cc1cc(OC2CCC2)nc(-c2cc(F)c(OCCCC(=O)O)c(Cl)c2)c1 [Example 429, 4-[2-chloro-4-(6-cyclobutoxy-4-methyl-pyridin-2-yl)-6-fluoro-phenoxy]-butyric acid] | < 0.2
18 | O=C(O)CCCCc1ccc(-c2cccnc2SC2CCCC2)cc1F [Example 248, 5-[4-(2-cyclopentylsulfanyl-pyridin-3-yl)-2-fluoro-phenyl]-pentanoic acid] | < 0.2
19 | O=C(O)CC1CCN(c2ccc(-c3cccc(OC4CCC4)n3)cc2F)CC1 [Example 320, 2-[1-[4-[6-(cyclobutoxy)-2-pyridyl]-2-fluoro-phenyl]-4-piperidyl]acetic acid] | 0.2 to 2
20 | Cc1nsc(OC2CCC2)c1-c1cc(F)c(N2CCC(CC(=O)O)CC2)c(F)c1 [Example 366, 2-[1-[4-[5-(cyclobutoxy)-3-methyl-isothiazol-4-yl]-2,6-difluoro-phenyl]-4-piperidyl]acetic acid] | 0.2 to 2
21 | CC(C)Sc1cccc(-c2ccc3nc(CCC(=O)O)ccc3c2)n1 [Example 2, 3-[6-(6-isopropylsulfanyl-pyridin-2-yl)-quinolin-2-yl]-propionic acid] | 0.2 to 2
22 | CCSc1ncccc1-c1cc(F)c(C(C)CCCC(=O)O)c(F)c1 (stereo not shown) [Example 42, 5-[4-(2-ethylsulfanyl-3-pyridyl)-2,6-difluoro-phenyl]hexanoic acid] | < 0.2
23 | O=C(O)C[C@@H]1CCN(c2c(F)cc(-c3cccc(OCC4CC4)n3)cc2F)C1 [Example 604, {(S)-1-[4-(6-cyclopropylmethoxy-pyridin-2-yll)-2,6-difluoro-phenyl]-pyrrolidin-3-yl}-acetic acid] | < 0.2
24 | CCCOc1cncc(-c2cc(F)c(N3CCC(CC(=O)O)CC3)c(F)c2)n1 [Example 341, 2-[1-[2,6-difluoro-4-(6-propoxypyrazin-2-yl)phenyl]-4-piperidyl]acetic acid] | < 0.2
25 | O=C(O)CC1CCN(c2c(F)cc(-c3nc(Oc4ccc(F)cc4)cc(C(F)(F)F)n3)cc2F)CC1 [Example 619, (1-{2,6-difluoro-4-[4-(4-fluoro-phenoxy)-6-trifluoromethyl-pyrimidin-2-yl]-phenyl}-piperidin-4-yl)-acetic acid] | 2 to 20
26 | CCCOc1ncccc1-c1cc(F)c(OCc2cc(O)no2)c(F)c1 [Example 74, 5-[[2,6-difluoro-4-(2-propoxy-3-pyridyl)phenoxy]methyl]isoxazol-3-ol] | < 0.2
27 | CC(CCCC(=O)O)c1c(F)cc(-c2cccnc2OC2CCOC2)cc1F (stereo not shown) [Example 230, 5-{2,6-difluoro-4-[2-(tetrahydro-furan-3-yloxy)-pyridin-3-yl]-phenyl}-hexanoic acid] | < 0.2
28 | Cc1cc2cc(Cl)cc(-c3cc(F)c(C(C)CCCC(=O)O)c(F)c3)c2o1 (stereo not shown) [Example 519, 5-[4-(5-chloro-2-methyl-benzofuran-7-yl)-2,6-difluoro-phenyl]-hexanoic acid] | 0.2 to 2
29 | COc1ccc(-c2ccc(C(F)(F)CCCC(=O)O)cc2)nc1OC1CCC1 [Example 464, 5-[4-[6-(cyclobutoxy)-5-methoxy-2-pyridyl]phenyl]-5,5-difluoro-pentanoic acid] | < 0.2
30 | O=C(O)CCCOc1c(F)cc(-c2cccc(OC3CCC3)c2)cc1Cl [Example 405, 4-(5-chloro-3′-cyclobutoxy-3-fluoro-biphenyl-4-yloxy)-butyric acid] | < 0.2
31 | CN(CCCC(=O)O)c1c(F)cc(-c2cccc(OCC3CC3)n2)cc1F [Example 493, 4-[4-[6-(cyclopropylmethoxy)-2-pyridyl]-2,6-difluoro-N-methyl-anilino]butanoic acid] | < 0.2

Source: patent publication US11261186B2, “Biaryl derivative as GPR120 agonist” (LG CHEM, LTD., priority 2014, dated 2022)
